Test results: patent publication US7368126B2, “Controlled release depot formulations” (priority 2002, dated 2008)
Where a name gives a salt, the structure may show the parent alone.

Columns and labels:
Solubility in water = assay type: physicochemical; details: DI water
[1] = cited from earlier work

Compound	concentration in deionized water at saturation (Solubility in water)	reported solubility in water [1]
CCCCN1CCCCC1C(=O)Nc1c(C)cccc1C (centres unmarked) [Bupivacaine hydrochloride]	40000 µg/mL	–
CC(=O)OCC(COC(C)=O)OC(C)=O [triacetin]	–	7.17 grams in 100 ml of water
